From patent US9452164B2, “Imidazopyridine derivatives, process for preparation thereof and therapeutic use thereof” (SANOFI, priority 2010, dated 2016)
Where a name gives a salt, the structure may show the parent alone. Values belong to the molecule of their own block, whether it stands above or below them.

Assays:
OF1 female mice = assay: Model of inflammatory angiogenesis in mice (air pocket granuloma, carmine red dye); type: in vivo; conditions: for % inhibition of the angiogenic parameter (dye content) / % inhibition of the inflammatory parameter (mass of the granuloma): daily oral, mice; for dye content corresponding to the angiogenesis / weight of the granuloma (dry weight of the skin), inflammation part: one week of daily treatment
Description: The model described by Colville-Nash et al., in 1995, makes it possible to study pharmacological agents capable of modulating the occurrence of angiogenesis in an inflammatory context. The model is developed on OF1 female mice (Charles River Laboratories) weighing approximately 25 g, and by groups of 12. The animals are anaesthetized with sodium pentobarbital (60 mg/kg; Sanofi Nutrition Sante animale)) intraperitoneally. An air pocket is created on the back of the mouse by subcutaneous injection of 3 ml of air. After they have awoken, the animals receive a treatment generally by gavage, and receive an injection of 0.5 ml of Freund's adjuvant (Sigma) with 0.1% of croton oil (Sigma) in the pocket. Seven days later, the mice are again anaesthetized and placed on a hot plate at 40° C. One ml of carmine red (Aldrich Chemicals, 5% in 10% of gelatin) is injected into the tail vein. The animals are then placed at 4° C. for 2-3 hours. The skins are then taken and dried for 24 h in an oven at 56° C. The dry tissues are weighed and placed in 1.8 ml of digestion solution (2 mM dithiothreitol, 20 mM Na2HPO4, 1 mM EDTA, 12 U/ml papain) for 24 h. The dye is then dissolved in 0.2 ml of 5M NaOH. The skins are centrifuged at 2000 rpm for 10 min at ambient temperature. The supernatants are filtered through 0.2 μm cellulose acetate membranes. The filtrates are read in a spectrophotometer at 492 nm against a carmine red calibration range. Two parameters are studyed: the dry weight of the granuloma and the amount of dye after digestion of the tissues. The results are expressed as mean values (±sem). The differences between the groups are tested with an ANOVA followed by a Dunnett's test, of which the reference group is the “solvent control” group.
The FGF-R antagonists are evaluated between 1 and 50 mg/kg using methylcellulose/tween (0.6% v/v) as vehicle or any other vehicle which allows the active ingredient to be solubilized. The molecules are administered daily, orally (one or two times a day) by gavage. The antagonists of the present invention are considered to be active as long as they enable a significant reduction in the angiogenic parameter, i.e. a reduction in the amount of carmine red dye in the skins of the animals tested.

[1] = test system: HUVEC cells stimulated with FGF-2; assay: FGF-2-induced in vitro proliferation of HUVEC cells; type: cell-based, human; conditions: HUVEC stimulated with FGF-2, ATP luminescence
Description: To do this, HUVEC human vein endothelial cells (promocell, C-12200) are seeded at a rate of 5000 cells per well of a 96-well plate (Biocoat collagen I cellware, Becton Dickinson 354650) in 100 μl of RPMI 1640 deprivation medium (Invitrogen, 31872-025) supplemented with 0.5% or 1% FCS, 2 mM glutamine, 1× sodium pyruvate (Invitrogen; 11360-039) and 1×NEAA (Invitrogen, 11140-035), overnight at 37° C. in the presence of 5% CO2. The following morning, the medium is suctioned-off and replaced with 50 μl of deprivation medium containing the antagonists at a 2× concentration, to which are added 50 μl of FGF-2 (R&D systems, 133-FB-025; Invitrogen, PHG0026) at 0.2 ng/ml (i.e. 2×). After 48 or 72 h, 100 μl of Cell Titer-GLO™ Luminescent Cell Viability Assay (Promega, G7571) are added for 10 min in order to measure, by means of a luminometer, the amount of ATP present in the cells and which is in relation to the number of cells per well corresponding to the cell proliferation.
The antagonists of the present invention are considered to be active as long as they are capable of inhibiting FGF-2-induced proliferation of HUVEC cells at a dose less than or equal to 300 nM.

[2] = test system: HUVEC cells stimulated with FGF-2; assay: FGF-2-induced in vitro angiogenesis of HUVEC cells; type: cell-based, human; conditions: HUVEC stimulated with FGF-2, 24 h, pseudotubule network length
Description: To do this, matrices composed of matrigel (growth factor reduced matrigel, Becton Dickinson 356230) and collagen (rat tail collagen type I, Becton Dickinson 354236) are deposited, at a rate of 160 μl, into each chamberslide well (Biocoat Cellware collagen, Type I, 8-well culturesides: Becton Dickinson 354630), or 60 μl per well of 96-well plates (Biocoat collagen I cellware, Becton Dickinson 354407). The matrix is prepared by mixing ⅓ of matrigel, 1 mg/ml final concentration of collagen, 0.1N NaOH (0.026× the volume of collagen in μl) and 1×PBS, and the volume is then adjusted with water. The gels are kept at 37° C. for 1 hour so as to allow them to polymerize. […] After 24 hours, the length of the network of microtubules formed was measured using a computer-assisted image analysis system (Imagenia Biocom, Courtaboeuf, France) and the total length of the pseudotubules in each well was determined. The average total length of the microcapillary network was calculated in μm for each condition corresponding to the average of 6 replicates. […]
In this experiment, the molecules are evaluated at 3 and 30 nM on induction of the angiogenesis of HUVEC human cells by FGF-2.

Structure (SMILES): CN(C)CCNC(=O)c1cccc(-c2nc(C(=O)c3ccc4c(c3)c(=O)n(Cc3ccc(F)cc3)c(=O)n4C)n3ccccc23)c1.Cl
melting point: 247 °C

Structure (SMILES): Cl.Cn1c(=O)n(Cc2ccc(F)cc2)c(=O)c2cc(C(=O)c3nc(-c4cccc(C(=O)OCCN5CCOCC5)c4)c4ccccn34)ccc21
melting point: 215 °C

Structure (SMILES): CCCn1c(=O)[nH]c2ccc(C(=O)c3ncc4ccccn34)cc2c1=O [Compound No. 1, 6-(Imidazo[1,5-a]pyridin-3-ylcarbonyl)-3-propylquinazoline-2,4(1H,3H)-dione]
melting point: 304 °C

Structure (SMILES): O=C(c1ccc2nc[nH]c(=O)c2c1)c1ncc2ccccn12 [Compound No. 3, 6-(Imidazo[1,5-a]pyridin-3-ylcarbonyl)quinazolin-4(3H)-one]
melting point: 289 °C

Structure (SMILES): CCCn1c(=O)[nH]c2ccc(C(=O)c3nc(-c4cccc(C(=O)[O-])c4)c4ccccn34)cc2c1=O.[Na+] [Compound No. 10, Sodium Salt of 3-{3-[(2,4-dioxo-3-propyl-1,2,3,4-tetrahydroquinazolin-6-yl)carbonyl]imidazo[1,5-a]pyridin-1-yl}benzoic acid]
% inhibition of the angiogenic parameter (dye content) (OF1 female mice; 30 mg/kg): 19%
% inhibition of the inflammatory parameter (mass of the granuloma) (OF1 female mice; 30 mg/kg): 19%

Structure (SMILES): Cn1c(=O)n(Cc2ccc(F)cc2)c(=O)c2cc(C(=O)c3nc(-c4cccc(C(=O)[O-])c4)c4ccccn34)ccc21.[Na+] [Compound No. 49, Sodium Salt of 3-(3-{[3-(4-fluorobenzyl)-1-methyl-2,4-dioxo-1,2,3,4-tetrahydroquinazolin-6-yl]carbonyl}imidazo[1,5-a]pyridin-1-yl)benzoic acid]
inhibition of proliferation as percentage of the control ([1]; 30 nM): 9%
inhibition of proliferation as percentage of the control ([1]; 300 nM): 29%
% inhibition of the angiogenic parameter (dye content) (OF1 female mice; 10 mg/kg, one week): 46%
% inhibition of the inflammatory parameter (mass of the granuloma) (OF1 female mice; 10 mg/kg, one week): 40%
dye content corresponding to the angiogenesis (OF1 female mice; 10 mg/kg): significantly reduce
weight of the granuloma (dry weight of the skin), inflammation part (OF1 female mice; 10 mg/kg): significantly reduce

Structure (SMILES): CCCn1c(=O)n(Cc2ccc(F)cc2)c(=O)c2cc(C(=O)c3nc(-c4cccc(C(=O)[O-])c4)c4ccccn34)ccc21.[Na+] [Compound No. 72, Sodium Salt of 3-(3-{[3-(4-fluorobenzyl)-1-propyl-2,4-dioxo-1,2,3,4-tetrahydroquinazolin-6-yl]carbonyl}imidazo[1,5-a]pyridin-1-yl)benzoic acid]
inhibition of proliferation as percentage of the control ([1]; 30 nM): 38%
inhibition of proliferation as percentage of the control ([1]; 300 nM): 55%
% inhibition of the angiogenic parameter (dye content) (OF1 female mice; 10 mg/kg, one week): 43%
% inhibition of the inflammatory parameter (mass of the granuloma) (OF1 female mice; 10 mg/kg, one week): 38%
dye content corresponding to the angiogenesis (OF1 female mice; 10 mg/kg): significantly reduce
weight of the granuloma (dry weight of the skin), inflammation part (OF1 female mice; 10 mg/kg): significantly reduce
inhibition of angiogenesis as a percentage of the control ([2]; 3 nM): 36%
inhibition of angiogenesis as a percentage of the control ([2]; 30 nM): 24%

Structure (SMILES): CCCn1c(=O)n(CCOc2ccc(F)cc2)c(=O)c2cc(C(=O)c3nc(-c4cccc(C(=O)[O-])c4)c4ccccn34)ccc21.[Na+] [Compound No. 223, Sodium Salt of 3-[3-({3-[2-(4-fluorophenoxy)ethyl]-1-propyl-2,4-dioxo-1,2,3,4-tetrahydroquinazolin-6-yl}carbonyl)imidazo[1,5-a]pyridin-1-yl]benzoic acid]
% inhibition of the angiogenic parameter (dye content) (OF1 female mice; 10 mg/kg, one week): 43%
% inhibition of the inflammatory parameter (mass of the granuloma) (OF1 female mice; 10 mg/kg, one week): 25%

Further lines, results first:

melting point: 267 °C
Structure (SMILES): Cn1c(=O)n(Cc2ccc(F)cc2)c(=O)c2cc(C(=O)c3nc(-c4cccnc4)c4ccccn34)ccc21 (as salt: hydrochloride) [Compound No. 113, 3-(4-Fluorobenzyl)-1-methyl-6-[(1-pyridin-3-ylimidazo[1,5-a]pyridin-3-yl)carbonyl]quinazoline-2,4(1H,3H)-dione]

melting point: 384 °C
Structure (SMILES): CCCn1c(=O)[nH]c2ccc(C(=O)c3ncc4ccc(C(=O)O)cn34)cc2c1=O [Compound No. 8, 3-[(2,4-Dioxo-3-propyl-1,2,3,4-tetrahydroquinazolin-6-yl)carbonyl]imidazo[1,5-a]pyridine-6-carboxylic acid]

melting point: 334 °C
Structure (SMILES): CCCn1c(=O)[nH]c2ccc(C(=O)c3nc(NS(C)(=O)=O)c4ccccn34)cc2c1=O [Compound No. 13, N-{3-[(2,4-Dioxo-3-propyl-1,2,3,4-tetrahydroquinazolin-6-yl)carbonyl]imidazo[1,5-a]pyridin-1-yl}methanesulphonamide]

melting point: 345 to 346 °C
Structure (SMILES): CCCn1c(=O)[nH]c2ccc(C(=O)c3nc(-c4cccc(C(N)=O)c4)c4ccccn34)cc2c1=O [Compound No. 29, 3-{3-[(2,4-Dioxo-3-propyl-1,2,3,4-tetrahydroquinazolin-6-yl)carbonyl]imidazo[1,5-a]pyridin-1-yl}benzamide]

melting point: 276 to 277 °C
Structure (SMILES): CCCn1c(=O)[nH]c2ccc(C(=O)c3nc(-c4cccc(-c5nc(C)no5)c4)c4ccccn34)cc2c1=O [Compound No. 36, 6-({1-[3-(3-Methyl-1,2,4-oxadiazol-5-yl)phenyl]imidazo[1,5-a]pyridin-3-yl}carbonyl)-3-propylquinazoline-2,4(1H,3H)-dione]

melting point: 305 °C
Structure (SMILES): CCCn1c(C)nc2ccc(C(=O)c3nc(-c4cccc(C(=O)O)c4)c4ccccn34)cc2c1=O [Compound No. 53, 3-{3-[(2-Methyl-4-oxo-3-propyl-3,4-dihydroquinazolin-6-yl)carbonyl]imidazo[1,5-a]pyridin-1-yl}benzoic acid]

melting point: 238 °C
Structure (SMILES): CCCn1c(C)nc2ccc(C(=O)c3nc(-c4cccc(C(N)=O)c4)c4ccccn34)cc2c1=O [Compound No. 55, 3-{3-[(2-Methyl-4-oxo-3-propyl-3,4-dihydroquinazolin-6-yl)carbonyl]imidazo[1,5-a]pyridin-1-yl}benzamide]
